Test results as given in US9034922B2, “Composition for maintaining function of platelets” (THE UNIVERSITY OF TOKYO, priority 2010, dated 2015).

What was measured:
[1] = test system: human platelets in laser/hematoporphyrin-induced thrombus formation; test: Thrombus formation model in NOG mice with biomolecular imaging (injected human platelets); format: in vivo, mouse; details: Test Example 16; platelets prepared with 15 μM S-45457 and 100 μM CCCP, 37° C., 24 hours, injected into NOG mice
Experimental: The maintaining effect of the compound (such as S-45457) according to the present invention on the adhesion ability of platelets, particularly adhesion ability of platelets to a blood vessel in vivo, was evaluated using a biomolecular imaging technique and a thrombus formation model developed by the present inventors.
Note that the thrombus formation model used in this Test Example induces thrombus formation as follows. Specifically, reactive oxygen species (ROS) are generated locally in a blood vessel by using laser irradiation along with hematoporphyrin, and so forth. This gives damage to vascular endothelial cells, and thereby platelets adhere to the blood vessel, so that a thrombus is formed. […]
First, platelets were prepared for injection into mice used as a model of thrombus formation. […] After the incubation (in the case of the positive control, without incubation), the number of platelets in the precipitate was counted. […] The suspension was then incubated at room temperature for 15 minutes to label the platelets with fluorescence. […]
Next, the thrombus formation model mouse was prepared. […] Then, platelets labelled with fluorescence as described above were injected into the NOG mouse so that the number of the platelets was 15% of the number of circulating platelets. […]

[2] = test system: iPS cell-derived platelets (ADAM17-mediated GPIbα shedding); test: Function-maintaining effect on iPS cell-derived platelets in culture system (flow cytometry CD41/CD42b, platelet count); format: cell-based, human; details: Test Example 7, 8 days
Description: As human iPS cells (hiPS cells), an iPS cell line (TkDA3-4) established at the University of Tokyo by introducing Oct4, Klf4, Sox2, and c-Myc into human-derived skin cells was also used). […] The cells were subcultured for every 3 days, and those keeping an undifferentiated state were used.
Thereby, megakaryocytes/platelets were induced.

CC#CCOc1ccc(S(=O)(=O)CC(c2ccc(CNS(C)(=O)=O)cc2)N(O)C=O)cc1 (stereo not drawn) [Compound I-4, N-{4-[2-(4-But-2-ynyloxybenzenesulfonyl)-1-(formylhydroxyamino)ethyl]benzyl}methanesulfonamide]
percentage of the human-derived platelets contributing to the thrombus formation [1]: higher than that of the negative control
toxicity to cells (total number of platelets) ([2]; iPS cells and differentiated cells, 1.5 to 50 μM): low toxicity
concentration dependency of inhibition of GPIbα shedding ([2]; iPS cells, S-45457 1.5 to 50 μM): inhibit ADAM17-mediated GPIbα shedding in a manner dependent on the added concentration
